One data set deals with ANF (P19 cells). The data set is described as follows: ANF promoter luciferase reporter assay in P19 cells. The data set is classed as cell-based, mouse. Particulars: Mus musculus, read-out: ANF activity. For orientation: Reporter assays use an easily measured gene product as a stand-in for the process of interest.
The next data set concerns ANF (C2C12 cells). The data set is described as follows: ANF promoter luciferase reporter assay in C2C12 cells. The data set is classed as cell-based, mouse. The settings on record: for fold induction at 1 µM: Mus musculus, read-out: ANF activity; for luciferase signal in all three reporter assays: ANF, TOPflash and Nkx2.5 reporter assays together.
The test system of a further data set is TOPflash (C2C12 cells). The data set is described as follows: TOPflash luciferase reporter assay in C2C12 cells. The data set is classed as cell-based. Particulars: Mus musculus, read-out: TOPflash activity.
The test system of a further data set is Nkx2.5 (C2C12 cells). The data set is described as follows: Nkx2.5 luciferase reporter assay in C2C12 cells. In kind it is cell-based. Particulars: Mus musculus, read-out: Nkx2.5 activity.
The next data set has as its system TOPflash (P19 cells). Briefly: TOPflash luciferase reporter assay in P19 cells. The settings on record: Mus musculus, read-out: TOPflash activity. In kind it is cell-based.
In the next data set the test system is Nkx2.5 (P19 cells). The data set is described as follows: Nkx2.5 luciferase reporter assay in P19 cells. In kind it is cell-based. Particulars: Mus musculus, read-out: Nkx2.5 activity.
The mark [1] stands for this setting: 192 h, P19 cells, 1 μM for 8 days, luciferase signal vs control (untreated cells).
Setting [2] is: 192 h, C2C12 cells, 1 μM for 8 days, luciferase signal vs control (untreated cells).

Where two headings read alike, the source gives them in different places.

For `COc1ccc(Nc2cc(N3CCOCC3)ncn2)cc1` [example 15, N-(4-Methoxyphenyl)-6-morpholinopyrimidin-4-amine], the fold induction at 1 µM in the data set on ANF (P19 cells) (setting [1]) was over 2.
On to `OCCNc1cccc(Nc2ccc(Oc3ccccc3)cc2)n1` [example 44, 2-(6-(4-Phenoxyphenylamino)pyridin-2-ylamino)ethan-1-ol], for which the fold induction at 1 µM in the data set on ANF (C2C12 cells) (setting [2]) was under 1.3; with TOPflash (C2C12 cells) (setting [2]) it was under 1.3; in the data set on Nkx2.5 (C2C12 cells) (setting [2]), 1.3 to 2; in the data set on ANF (P19 cells) (setting [1]), 1.3 to 2; in the data set with TOPflash (P19 cells) (setting [1]) it was under 1.3; with Nkx2.5 (P19 cells) (setting [1]), under 1.3.
Take `COCCNc1cc(Nc2cccc(Cl)c2)ncn1` [example 27, N^4-(3-Chlorophenyl)-N^6-(2-methoxyethyl)pyrimidine-4,6-diamine]: the fold induction at 1 µM with ANF (P19 cells) (P19, 192 h) is under 1.3; in the data set on Nkx2.5 (P19 cells) (P19, 192 h), under 1.3.
On to `OCCNc1cc(Nc2ccccc2)ncn1` [example 23, 2-(6-(Phenylamino)pyrimidin-4-ylamino)ethan-1-ol], for which the fold induction at 1 µM in the data set with ANF (P19 cells) (setting [1]) and with Nkx2.5 (P19 cells) (setting [1]) was under 1.3 throughout.
As for `CCOC(=O)c1ccc(Nc2cc(NCCO)ncn2)cc1` [example 34, Ethyl 4-(6-(2-hydroxyethylamino)pyrimidin-4-ylamino)benzoate], the fold induction at 1 µM in the data set on ANF (P19 cells) (setting [1]) and with Nkx2.5 (P19 cells) (setting [1]) was under 1.3 each time.
With `CNc1cc(Nc2ccc(OC)cc2)ncn1` [example 11, N^4-(4-Methoxyphenyl)-N^6-methylpyrimidine-4,6-diamine], the melting point (commonly the temperature of the solid-liquid transition) was in the range of 174 to 182 °C. Besides, the fold induction at 1 µM with ANF (C2C12 cells) (setting [2]) is under 1.3. In addition, in the data set with TOPflash (C2C12 cells) (setting [2]), the fold induction at 1 µM was in the range of 1.3 to 2. Moreover, in the data set on Nkx2.5 (C2C12 cells) (setting [2]), the fold induction at 1 µM lay within 1.3 to 2. Besides, the fold induction at 1 µM with ANF (P19 cells) (setting [1]) is under 1.3. Besides, in the data set with TOPflash (P19 cells) (setting [1]), the fold induction at 1 µM is over 2. Further, the fold induction at 1 µM in the data set on Nkx2.5 (P19 cells) (setting [1]) is under 1.3.
For `COc1ccc(Nc2cc(NC(C)(C)C)ncn2)cc1` [example 20, N^4-tert-Butyl-N^6-(4-methoxyphenyl)pyrimidine-4,6-diamine], in the data set on ANF (P19 cells) (P19, 192 h), the fold induction at 1 µM was over 2.
In turn, `CCNc1cc(Nc2ccc(OC)cc2)ncn1` [example 10, N^4-Ethyl-N^6-(4-methoxyphenyl)pyrimidine-4,6-diamine] yielded a melting point of 190 to 193 °C. Also, the “luciferase signal in all three reporter assays” value (“luciferase signal” for short) in the data set with ANF (C2C12 cells) (C2C12 cells, 1 μM for 8 days) is on record as “increase in the luciferase signal in all three reporter assays”. The fold induction at 1 µM in the data set on ANF (C2C12 cells) (C2C12, 192 h) was in the range of 1.3 to 2. Further, the fold induction at 1 µM with TOPflash (C2C12 cells) (C2C12, 192 h) lay in the range of 1.3 to 2. In the data set on Nkx2.5 (C2C12 cells) (C2C12, 192 h), the fold induction at 1 µM lay in the range of 1.3 to 2. The fold induction at 1 µM in the data set with ANF (P19 cells) (P19, 192 h) fell in the range of 1.3 to 2. Besides, in the data set on TOPflash (P19 cells) (P19, 192 h), the fold induction at 1 µM was under 1.3. Besides, the fold induction at 1 µM in the data set on Nkx2.5 (P19 cells) (P19, 192 h) was under 1.3.
`OCCNc1cc(Nc2cccc(Cl)c2)ncn1` [example 25, 2-(6-(3-Chlorophenylamino)pyrimidin-4-ylamino)ethan-1-ol]: the fold induction at 1 µM was over 2 in the data set on ANF (P19 cells) (setting [1]) and 1.3 to 2 with Nkx2.5 (P19 cells) (setting [1]).
In the case of `COc1ccc(Nc2cccc(NCCCO)n2)cc1` [example 43, 3-(6-(4-Methoxyphenylamino)pyridin-2-ylamino)propan-1-ol], the “luciferase signal” value in the data set on ANF (C2C12 cells) (C2C12 cells, 1 μM for 8 days) is “increase in the luciferase signal in all three reporter assays”. Moreover, the fold induction at 1 µM is 1.3 to 2 in the data set with ANF (C2C12 cells) (setting [2]); 1.3 to 2 in the data set on TOPflash (C2C12 cells) (setting [2]); 1.3 to 2 in the data set with Nkx2.5 (C2C12 cells) (setting [2]); 1.3 to 2 with ANF (P19 cells) (setting [1]); 1.3 to 2 with TOPflash (P19 cells) (setting [1]); under 1.3 in the data set on Nkx2.5 (P19 cells) (setting [1]).
Consider `Clc1cccc(Nc2cc(NC3CCCCC3)ncn2)c1` [example 26, N^4-(3-Chlorophenyl)-N^6-cyclohexylpyrimidine-4,6-diamine], for which the fold induction at 1 µM with ANF (P19 cells) (P19, 192 h) was over 2; with Nkx2.5 (P19 cells) (P19, 192 h), over 2.
Consider `OCCNc1cc(Nc2cccc(F)c2)ncn1` [example 32, 2-(6-(3-Fluorophenylamino)pyrimidin-4-ylamino)ethan-1-ol], for which the fold induction at 1 µM in the data set on ANF (P19 cells) (setting [1]) and with Nkx2.5 (P19 cells) (setting [1]) was under 1.3 throughout.
In the case of `COc1ccc(N(C)c2cc(NCCO)ncn2)cc1` [example 38, 2-(6-((4-Methoxyphenyl)(methyl)amino)pyrimidin-4-ylamino)ethan-1-ol], in the data set with ANF (P19 cells) (setting [1]), the fold induction at 1 µM was over 2.
For `c1nc(Nc2ccc(N3CCOCC3)cc2)cc(NC2CCCCC2)n1` [example 5, N^4-Cyclohexyl-N^6-(4-morpholinophenyl)pyrimidine-4,6-diamine], the melting point was in the range of 239 to 240 °C. Further, in the data set on ANF (C2C12 cells) (C2C12, 192 h), the fold induction at 1 µM was under 1.3. Also, the fold induction at 1 µM in the data set on TOPflash (C2C12 cells) (C2C12, 192 h) is under 1.3. In addition, in the data set with Nkx2.5 (C2C12 cells) (C2C12, 192 h), the fold induction at 1 µM is under 1.3. The fold induction at 1 µM in the data set with ANF (P19 cells) (P19, 192 h) is 1.3 to 2. For the same molecule, the fold induction at 1 µM with TOPflash (P19 cells) (P19, 192 h) was under 1.3. In addition, the fold induction at 1 µM in the data set on Nkx2.5 (P19 cells) (P19, 192 h) was under 1.3.
As for `COc1cccc(Nc2cc(NCCO)ncn2)c1` [example 22, 2-(6-(3-Methoxyphenylamino)pyrimidin-4-ylamino)ethan-1-ol], the fold induction at 1 µM in the data set with ANF (C2C12 cells) (setting [2]) is 1.3 to 2; with TOPflash (C2C12 cells) (setting [2]), 1.3 to 2; in the data set on Nkx2.5 (C2C12 cells) (setting [2]), under 1.3; in the data set with ANF (P19 cells) (setting [1]) it was under 1.3; in the data set with TOPflash (P19 cells) (setting [1]) it was under 1.3; in the data set with Nkx2.5 (P19 cells) (setting [1]), under 1.3.
With `COc1ccc(Nc2cc(NC34CC5CC(CC(C5)C3)C4)ncn2)cc1` [example 21, N^4-Adamant-1-yl-N^6-(4-methoxyphenyl)pyrimidine-4,6-diamine], the fold induction at 1 µM with ANF (P19 cells) (P19, 192 h) is over 2.
In the case of `CCC(C)Nc1cc(Nc2ccc(OC)cc2)ncn1` (centres unmarked) [example 19, N^4-sec-Butyl-N^6-(4-methoxyphenyl)pyrimidine-4,6-diamine], the fold induction at 1 µM in the data set with ANF (P19 cells) (setting [1]) and with Nkx2.5 (P19 cells) (setting [1]) was under 1.3 each time.
On to `COc1ccc(Nc2cc(NC(C)C)ncn2)cc1` [example 12, N^4-(2-Propyl)-N^6-(4-methoxyphenyl)pyrimidine-4,6-diamine], for which the “luciferase signal” value in the data set with ANF (C2C12 cells) (C2C12 cells, 1 μM for 8 days) is “increase in the luciferase signal in all three reporter assays”. Besides, the fold induction at 1 µM with ANF (C2C12 cells) (C2C12, 192 h) was 1.3 to 2; in the data set on TOPflash (C2C12 cells) (C2C12, 192 h) it was 1.3 to 2; in the data set on Nkx2.5 (C2C12 cells) (C2C12, 192 h), 1.3 to 2; with ANF (P19 cells) (P19, 192 h), under 1.3; with TOPflash (P19 cells) (P19, 192 h), under 1.3; with Nkx2.5 (P19 cells) (P19, 192 h), 1.3 to 2.
Take `COc1ccc(Nc2cc(N(C)CCO)ncn2)cc1` [example 16, 2-((6-(4-Methoxyphenylamino)pyrimidin-4-yl)(methyl)amino)ethan-1-ol]: the fold induction at 1 µM with ANF (P19 cells) (P19, 192 h) was over 2.
Still for that read-out and setting: the same measure for `COc1ccc(Nc2cc(NCC(=O)O)ncn2)cc1` [example 14, 2-(6-(4-Methoxyphenylamino)pyrimidin-4-ylamino)acetic acid]: over 2; for `OCCNc1cc(NC2CCCCC2)ncn1` [example 39, 2-(6-(Cyclohexylamino)pyrimidin-4-ylamino)ethan-1-ol]: under 1.3.
As for `OCCCNc1cc(Nc2cccc(Cl)c2)ncn1` [example 31, 3-(6-(3-Chlorophenylamino)pyrimidin-4-ylamino)propan-1-ol], the fold induction at 1 µM in the data set on ANF (P19 cells) (P19, 192 h) is 1.3 to 2; with Nkx2.5 (P19 cells) (P19, 192 h) it was 1.3 to 2.
On to `OCCNc1cc(Nc2cccc(Br)c2)ncn1` [example 33, 2-(6-(3-Bromophenylamino)pyrimidin-4-ylamino)ethan-1-ol], for which the fold induction at 1 µM was under 1.3 in the data set on ANF (P19 cells) (setting [1]) and 1.3 to 2 in the data set with Nkx2.5 (P19 cells) (setting [1]).
Turning to `COc1ccc(Nc2cc(NC3CCCC3)ncn2)cc1` [example 18, N^4-Cyclopentyl-N^6-(4-methoxyphenyl)pyrimidine-4,6-diamine], in the data set on ANF (P19 cells) (P19, 192 h), the fold induction at 1 µM is over 2.
For `O=[N+]([O-])c1ccc(Nc2cc(NCCO)ncn2)cc1` [example 30, 2-(6-(4-Nitrophenylamino)pyrimidin-4-ylamino)ethan-1-ol], the fold induction at 1 µM in the data set on ANF (P19 cells) (setting [1]) and with Nkx2.5 (P19 cells) (setting [1]) was under 1.3 each time.
Regarding `OCCCNc1cccc(Nc2ccc(Oc3ccccc3)cc2)n1` [example 45, 3-(6-(4-Phenoxyphenylamino)pyridin-2-ylamino)propan-1-ol], the fold induction at 1 µM in the data set on ANF (C2C12 cells) (setting [2]) is under 1.3; in the data set with TOPflash (C2C12 cells) (setting [2]), 1.3 to 2; in the data set on Nkx2.5 (C2C12 cells) (setting [2]), under 1.3; in the data set on ANF (P19 cells) (setting [1]) it was under 1.3; in the data set with TOPflash (P19 cells) (setting [1]), under 1.3; in the data set with Nkx2.5 (P19 cells) (setting [1]), under 1.3.
On to `CCCCNc1cc(Nc2ccc(OC)cc2)ncn1` [example 17, N^4-Butyl-N^6-(4-methoxyphenyl)pyrimidine-4,6-diamine], for which the fold induction at 1 µM in the data set on ANF (P19 cells) (setting [1]) is over 2.
`OCCNc1cc(Nc2ccc(Cl)cc2)ncn1` [example 24, 2-(6-(4-Chlorophenylamino)pyrimidin-4-ylamino)ethan-1-ol] yielded a melting point of 183 °C. In the data set on ANF (P19 cells) (setting [1]), the fold induction at 1 µM is 1.3 to 2. Moreover, the fold induction at 1 µM in the data set on Nkx2.5 (P19 cells) (setting [1]) lay in the range of 1.3 to 2.
Regarding `COCCNc1cc(Nc2ccc(OC)cc2)ncn1` [example 13, N^4-(2-Methoxyethyl)-N^6-(4-methoxyphenyl)pyrimidine-4,6-diamine], the fold induction at 1 µM in the data set with ANF (P19 cells) (P19, 192 h) fell in the range of 1.3 to 2.
Regarding `COc1cccc(Nc2cc(NC3CCCCC3)ncn2)c1` [example 37, N^4-Cyclohexyl-N^6-(3-methoxyphenyl)pyrimidine-4,6-diamine], the fold induction at 1 µM with ANF (P19 cells) (P19, 192 h) is 1.3 to 2; in the data set with Nkx2.5 (P19 cells) (P19, 192 h), over 2.

The values above are taken from US8986994B2, “Substituted pyridines and pyrimidines” (Technische Universitaet Wien, priority 2009, dated 2015).
